The values below are quoted from earlier work in patent US10039772B2, “Methods and compositions for treating alcohol use disorders” (priority 2015, dated 2018).

Counter-ions that a name gives are not always drawn.

Sequence of Pannexin 1 (Q96RD7 whole entry, species assumed): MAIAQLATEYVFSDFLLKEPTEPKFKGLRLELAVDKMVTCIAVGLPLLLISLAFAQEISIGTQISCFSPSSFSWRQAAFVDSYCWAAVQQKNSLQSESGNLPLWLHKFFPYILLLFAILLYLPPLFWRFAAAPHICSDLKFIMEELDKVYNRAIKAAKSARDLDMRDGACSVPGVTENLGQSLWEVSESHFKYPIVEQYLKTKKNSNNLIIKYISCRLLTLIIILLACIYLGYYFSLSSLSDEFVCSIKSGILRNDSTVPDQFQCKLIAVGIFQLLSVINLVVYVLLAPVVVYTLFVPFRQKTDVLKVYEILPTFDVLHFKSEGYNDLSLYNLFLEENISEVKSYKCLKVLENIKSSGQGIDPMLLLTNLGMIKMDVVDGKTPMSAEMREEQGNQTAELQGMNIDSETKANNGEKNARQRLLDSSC

One series deals with 11β-HSD1, 11β-HSD2. The following applies: 11β-HSD isozyme specificity per cited reference; cited from earlier work.
In the case of `COc1ccc(-c2cnc(N3CCN(C(=O)N4CCC(c5cn[nH]c5)C4)c4ccccc43)nc2)cc1` (stereo not shown) [Number 100], the Specificity is reported as 11β- HSD1 > 2.
Turning to `Cc1c(Cl)cccc1S(=O)(=O)Nc1nc(CC(=O)N2CCN(C)CC2)cs1` [Number 5], the Specificity is 11β- HSD1 > 2.
In the case of `COc1ccc(C(=O)N2CCC(c3c[nH]c4ccccc34)C2)c(C)c1` (stereo not shown) [Number 97], the Specificity is on record as 11β- HSD1 > 2.
As for `O=C(Nc1ccc(C(=O)N2CCC[C@H]3CCCC[C@@H]32)c2ccccc12)c1ccc(Cl)cc1Cl` [Number 106], the Specificity is on record as 11β- HSD1 > 2.
Regarding `COc1cc(C(=O)Nc2ccc(C(=O)N3CCCCC3)c(O)c2)cc(OC)c1OC` [Number 105], the Specificity was 11β- HSD1 > 2.
Regarding `Nc1c(Cl)cc(C(=O)N(C2CCCC2)C2CC2)cc1Cl` [Number 54], the Specificity was 11β- HSD1 > 2.
With `C[C@]1(C(=O)N[C@H]2C3CC4CC2C[C@@](O)(C4)C3)CCCN1S(=O)(=O)c1cccc2cccnc12` [Number 90], the Specificity is 11β- HSD1 > 2.
Turning to `CC(C)(Oc1ccc(-n2cccn2)cn1)C(=O)N[C@H]1C2CC3CC1C[C@@](C(N)=O)(C3)C2` [Number 63], the Specificity is listed as 11β- HSD1 > 2.
For the compound `C[C@@H]1CN(c2ccc(F)cc2C(F)(F)F)CCN1S(=O)(=O)c1ccc([C@@](O)(C(N)=O)C(F)(F)F)s1` [Number 45], the Specificity is 11β- HSD1 > 2.
`O=C(N1CCC(c2c[nH]cn2)CC1)N1CCCc2ccccc21` [Number 99]: the Specificity is recorded as 11β- HSD1 > 2.
As for `O=C(O)CC1C2CC3CC(C2)CC1C3` (stereo not shown) [Number 73], the Specificity is 11β- HSD1 > 2.
For the compound `CC(C)(Cc1ccc(Cl)cc1)C(=O)NC12CCC(C(N)=O)(CC1)CC2` [Number 61], the Specificity was 11β- HSD1 > 2.
For the compound `Cc1nc2c(Cl)c(NS(=O)(=O)c3cc(Cl)ccc3Cl)ccc2s1` [Number 117], the Specificity is 11β- HSD1 > 2.
With `O=C(N[C@H]1C2CC3CC1C[C@@](O)(C3)C2)c1cnc(N[C@H]2CCOC2)nc1C1CCCC1` [Number 49], the Specificity is 11β- HSD1 > 2.
For `CC(=O)O[C@H]1CC[C@]2(C)[C@H]3C(=O)C=C4[C@H]5C[C@@](C)(NS(C)(=O)=O)CC[C@]5(C)CC[C@@]4(C)[C@]3(C)CC[C@H]2C1(C)C` [Number 251], the Specificity was 11β- HSD1 > 2.
For the compound `O[C@]12CC[C@](c3nnc4c(Oc5ccccc5Cl)cccn43)(CC1)C2` [Number 75], the Specificity is recorded as 11β- HSD1 > 2.
As to `O=C(N[C@H]1C2CC3CC1C[C@@](O)(C3)C2)c1cnc(N2CCOCC2)nc1C1CC1` [Number 48], the Specificity is reported as 11β- HSD1 > 2.
On to `Cc1ccc(C2(C(=O)N(C)Cc3cccs3)CC2)cc1` [Number 120], for which the Specificity was 11β- HSD1 > 2.
`CSc1nc(N2C[C@@H]3[C@H](C2)[C@H]3C(=O)O)ccc1C(=O)NC1C2CC3CC(C2)CC1C3` (stereo partly shown) [Number 50]: the Specificity is listed as 11β- HSD1 > 2.
As for `O=C(NC1C2CC3CC(C2)CC1C3)N1CCCCC1` (stereo not shown) [Number 76], the Specificity was 11β- HSD1 > 2.
Turning to `CCN(C(=O)c1ccc([C@@](C)(O)C(F)(F)F)cc1)C1CCCCC1` [Number 16], the Specificity is 11β- HSD1 > 2.
As for `CC(C)N(c1ccc([C@](C)(O)C(F)(F)F)cc1)S(=O)(=O)c1cc(Cl)ccc1Cl` [Number 20], the Specificity is listed as 11β- HSD1 > 2.
With `Cn1c(-c2ccc(-c3cnccn3)cc2Cl)nnc1[C@]1(c2ccc(Cl)cc2)C[C@@H](F)C1` [Number 27], the Specificity is recorded as 11β- HSD1 > 2.
For the compound `Cn1c(-c2ccccc2C(F)(F)F)nnc1C12CCC(c3nc(-c4ccc(C(O)C(F)(F)F)cc4)no3)(CC1)CC2` (stereo not shown) [Number 31], the Specificity was 11β- HSD1 > 2.
On to `CN(Cc1cccs1)C(=O)C12CC3CC(CC(C3)C1)C2` [Number 119], for which the Specificity was 11β- HSD1 > 2.
As for `N#Cc1cccnc1N1CCN(CC(=O)NC2C3CC4CC(C3)CC2C4)CC1` (stereo not shown) [Number 58], the Specificity is listed as 11β- HSD1 > 2.
Turning to `C[C@H](NC1=NC(=O)[C@@](C)(C(F)(F)F)S1)c1ccccc1F` [Number 11], the Specificity is 11β- HSD1 > 2.
On to `CN(C)C(=O)c1ccc(COCC(=O)C23CC4CC(CC(C4)C2)C3)cc1` [Number 121], for which the Specificity was 11β- HSD1 > 2.
Turning to `Cc1c(Cl)cccc1S(=O)(=O)NCc1ccc(C(=O)N2C[C@@H](C)O[C@@H](C)C2)cc1` [Number 82], the Specificity was 11β- HSD1 > 2.
`CCS(=O)(=O)CCCC12CCC(c3nnc(-c4ccccc4C(F)(F)F)n3C)(CC1)CC2` [Number 29]: the Specificity is on record as 11β- HSD1 > 2.
Take `Cc1c(Cl)cccc1Oc1cccn2c(C34CCC(O)(CC3)CC4)nnc12` [Number 72]: the Specificity is 11β- HSD1 > 2.
For the compound `F[C@H]1C[C@](c2ccc(Cl)cc2)(c2nnc(C3CC3)n2C2CC2)C1` [Number 25], the Specificity is 11β- HSD1 > 2.
For the compound `C[C@@H]1CN(c2ccc(F)cc2C(F)(F)F)CCN1S(=O)(=O)c1cccc([C@@](C)(O)C(F)(F)F)c1` [Number 43], the Specificity is listed as 11β- HSD1 > 2.
For `O=C(O)C[C@H]1CC2(CCN(C(=O)NC3C4CC5CC(C4)CC3C5)CC2)c2c(Br)cccc21` (stereo partly shown) [Number 77], the Specificity is on record as 11β- HSD1 > 2.
As for `Cn1c(-c2ccc(-c3cccc(S(C)(=O)=O)c3)cc2Cl)nnc1C1(c2ccc(Cl)cc2)CCC1` [Number 26], the Specificity is given as 11β- HSD1 > 2.

Staying with this series, now noted: cited from earlier work.
`C[C@@H]1CN(c2ccc(F)cc2C(F)(F)F)CCN1S(=O)(=O)c1ccc(C(N)=O)cc1Cl` [Number 44]: the Specificity was 11β- HSD1 > 2.
On to `Cc1c(Cl)cccc1S(=O)(=O)N1CCCC[C@@H]1C(=O)N[C@H]1C2CC3CC1C[C@](O)(C3)C2` [Number 88], for which the Specificity is 11β- HSD1 > 2.
Take `CC(C)[C@]1(C)SC(N[C@H]2C[C@@H]3CC[C@H]2C3)=NC1=O` [Number 13]: the Specificity is on record as 11β- HSD1 > 2.
`CC1CCN(C(=O)c2ccc(CSc3ccc(Cl)cc3)cc2)CC1` [Number 67]: the Specificity is 11β- HSD1 > 2.
With `Cc1cccc(N2CCC(C)(c3ccccc3)OC2=O)c1` (stereo not shown) [Number 80], the Specificity is recorded as 11β- HSD1 > 2.
On to `O=S1(=O)N=C(NC2CCCCC2)O[C@H]2CCCC[C@H]21` [Number 102], for which the Specificity is 11β- HSD1 > 2.

Another series has as its target Pannexin 1 (Homo sapiens, UniProt Q96RD7). The following applies: cited from earlier work.
As for `CCOc1ccc(Nc2ccc(/C(=C3C=C/C(=[N+](/CC)Cc4cccc(S(=O)(=O)[O-])c4)C=C/3C)c3ccc(N(CC)Cc4cccc(S(=O)(=O)[O-])c4)cc3C)cc2)cc1.[Na+]` [Number 256, Acid blue 90, Coomassie Brilliant Blue G], the “inhibition of Pannexin 1” value was “most selective and least detrimental Pannexin 1 inhibitor”.
As to “280: mimetic peptide SRPTEKTIFII [Number 280]”, the “inhibition of Pannexin 1” value is recorded as “inhibited”.
Regarding `O=C(O)c1ccccc1Nc1cccc(C(F)(F)F)c1` [flufenamic acid], the “inhibition of Pannexin 1” value is “found to inhibit the channel”.
`Nc1ncnc2c1ncn2[C@@H]1O[C@H](COP(=O)(O)OP(=O)(O)OP(=O)(O)O)C(OC(=O)c2ccc(C(=O)c3ccccc3)cc2)C1O` (stereo partly shown) [Number 265, 2′(3′)-O-(4-Benzoylbenzoyl)adenosine 5′-triphosphate triethylammonium salt]: the “inhibition of Pannexin 1” value is on record as “inhibit Pannexin 1 more effectively than AYP”.
As to “283: mimetic peptide WRQAAFVDSY [Number 283]”, the “inhibition of Pannexin 1” value is given as “inhibited”.
